Measurements taken from US20250313533A1, “QUINOLINE CARBOXYLIC ACID ESTER COMPOUND AND PREPARATION METHOD AND USE THEREOF” (priority 2019, published 2025).

Assays:
[1] = test system: pathogenic bacteria causing bacterial angular leaf spot in cucumbers; assay: In vitro bactericidal activity, bacterial angular leaf spot in cucumbers; format: cell-based, pseudomonas; details: read-out: inhibitory rate; for inhibition at 1 ppm: dosage 1 ppm; for inhibition at 5 ppm: dosage 5 ppm
[2] = test system: pathogenic bacteria causing bacterial wilt in tobacco; assay: whole plant or invertebrate; format: cell-based, ralstonia; details: read-out: inhibitory rate
[3] = test system: pathogenic bacteria causing black shank in potatoes; assay: In vitro bactericidal activity, black shank in potatoes; format: cell-based; details: read-out: inhibitory rate; for inhibition at 1 ppm: dosage 1 ppm; for inhibition at 5 ppm: dosage 5 ppm
[4] = test system: pathogenic bacteria causing stem rot in sweet potatoes; assay: In vitro bactericidal activity, stem rot in sweet potatoes; format: cell-based, dikia; details: read-out: inhibitory rate; for inhibition at 1 ppm: dosage 1 ppm; for inhibition at 5 ppm: dosage 5 ppm
[5] = test system: pathogenic bacteria causing bacterial blight in rice; assay: whole plant or invertebrate; format: cell-based, xanthomonas; details: read-out: inhibitory rate
[6] = test system: pathogenic bacteria causing fruit blotch in watermelons; assay: In vitro bactericidal activity, fruit blotch in watermelons; format: cell-based, acidovorax; details: read-out: inhibitory rate; for inhibition at 1 ppm: dosage 1 ppm; for inhibition at 5 ppm: dosage 5 ppm
[7] = test system: pathogenic bacteria causing black rot in Chinese cabbages; assay: In vitro bactericidal activity, black rot in Chinese cabbages; format: cell-based, xanthomonas; details: Xanthomonas, read-out: inhibitory rate; for inhibition at 1 ppm: dosage 1 ppm; for inhibition at 5 ppm: dosage 5 ppm
[8] = test system: pathogenic bacteria causing bacterial wilt in cassava; assay: organism not typed; format: cell-based; details: read-out: inhibitory rate
[9] = test system: pathogenic bacteria causing fire blight in pears; assay: In vitro bactericidal activity, fire blight in pears; format: cell-based, erwinia; details: Erwinia, read-out: inhibitory rate; for inhibition at 1 ppm: dosage 1 ppm; for inhibition at 5 ppm: dosage 5 ppm
black shank in potatoes = assay: Living crops in vivo protective activity, potatoes (root irrigation); details: Solanum tuberosum, read-out: efficacy against black shank in potatoes; for pest or weed control at 5 ppm: dosage 5 ppm; for pest or weed control at 10 ppm: dosage 10 ppm
Description: Root irrigation was carried out on the potatoes for tests according to the designed concentration of the agents. The dosage for each plant was 200 mL and was kept consistent (also for the control). The black shank bacteria were inoculated on the second day after the application. The results were investigated according to the disease condition.

[10] = test system: indoor potted cucumber seedlings; assay: Effect of improving growth and development of crops; format: in vivo; set-up: Rate of growth rate increase (%): concentration or dose not given beside the values; details: versus blank control; for Rate of chlorophyll content increase (%) / Rate of leaf area increase (%): 14 days after application; for Rate of growth rate increase (%): plant height 14 days after application; for Rate of leaf area increase (%): second leaf
In short: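 Plant height and second-leaf length/width were measured before application and 14 days after; growth rate and its percent increase, leaf area and leaf-area increase were calculated from these. Chlorophyll was read with a SPAD chlorophyll meter and its increase rate derived.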

cucumber seedlings = assay: Safety for plant growth after application; format: in vivo; details: dosage 200 ppm
In short: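 Using pot-grown cucumber seedlings indoors, we recorded plant height growth rate together with chlorophyll content and leaf area following compound application.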

[11] = test system: bacterial wilt in tobacco; assay: whole plant or invertebrate; details: Nicotiana tabacum, read-out: efficacy against bacterial wilt in tobacco
[12] = test system: stem rot in sweet potatoes; assay: whole plant or invertebrate; details: read-out: efficacy against stem rot in sweet potatoes
bacterial blight in rice = assay: whole plant or invertebrate; details: Oryza sativa, read-out: efficacy against bacterial blight in rice
[13] = test system: fruit blotch in watermelons; assay: whole plant or invertebrate; details: read-out: efficacy against fruit blotch in watermelons
[14] = test system: soft rot in Chinese cabbages; assay: whole plant or invertebrate; details: 48 h, read-out: efficacy against soft rot in Chinese cabbages

| SMILES | inhibition at 1 ppm [1] | inhibition at 5 ppm [1] | inhibition at 1 ppm [2] | inhibition at 5 ppm [2] | inhibition at 1 ppm [3] | inhibition at 5 ppm [3] | inhibition at 1 ppm [4] | inhibition at 5 ppm [4] | inhibition at 1 ppm [5] | inhibition at 5 ppm [5] | inhibition at 1 ppm [6] | inhibition at 5 ppm [6] | inhibition at 1 ppm [7] | inhibition at 5 ppm [7] | inhibition at 1 ppm [8] | inhibition at 5 ppm [8] | inhibition at 1 ppm [9] | inhibition at 5 ppm [9] | pest or weed control at 5 ppm (black shank in potatoes) | pest or weed control at 10 ppm (black shank in potatoes) | other results |
| --- | --- | --- | --- | --- | --- | --- | --- | --- | --- | --- | --- | --- | --- | --- | --- | --- | --- | --- | --- | --- | --- |
| CC(C)(C)Oc1cc2c(cc1F)c(=O)c(C(=O)OCCO)cn2C1CC1 [Compound 270] | ≥ 90% | ≥ 90% | ≥ 90% | ≥ 90% | ≥ 90% | ≥ 90% | ≥ 90% | ≥ 90% | ≥ 90% | ≥ 90% | ≥ 90% | ≥ 90% | ≥ 90% | ≥ 90% | ≥ 90% | ≥ 90% | ≥ 90% | ≥ 90% | ≥ 80% | ≥ 90% | Rate of chlorophyll content increase (%) [10]: 10%; Rate of growth rate increase (%) [10]: 9%; Rate of leaf area increase (%) [10]: 12%; safety for plant growth (discoloration, necrosis, wilt, malformation) (cucumber seedlings): safe for plant growth; pest or weed control at 5 ppm [11]: ≥ 90%; pest or weed control at 10 ppm [11]: ≥ 90%; pest or weed control at 5 ppm [12]: ≥ 90%; pest or weed control at 10 ppm [12]: ≥ 90%; pest or weed control at 5 ppm (bacterial blight in rice): ≥ 90%; pest or weed control at 10 ppm (bacterial blight in rice): ≥ 90%; pest or weed control at 5 ppm [13]: ≥ 90%; pest or weed control at 10 ppm [13]: ≥ 90%; pest or weed control at 5 ppm [14]: ≥ 90%; pest or weed control at 10 ppm [14]: ≥ 90% |
| O=C(OCCO)c1cn(C2CC2)c2cc(OCC(F)(F)F)c(F)cc2c1=O [Compound 275] | ≥ 90% | ≥ 90% | ≥ 90% | ≥ 90% | ≥ 90% | ≥ 90% | ≥ 90% | ≥ 90% | ≥ 90% | ≥ 90% | ≥ 90% | ≥ 90% | ≥ 90% | ≥ 90% | ≥ 90% | ≥ 90% | ≥ 90% | ≥ 90% | ≥ 90% | ≥ 90% | Rate of chlorophyll content increase (%) [10]: 13%; Rate of growth rate increase (%) [10]: 12%; Rate of leaf area increase (%) [10]: 11%; safety for plant growth (discoloration, necrosis, wilt, malformation) (cucumber seedlings): safe for plant growth; pest or weed control at 5 ppm [11]: ≥ 90%; pest or weed control at 10 ppm [11]: ≥ 90%; pest or weed control at 5 ppm [12]: ≥ 90%; pest or weed control at 10 ppm [12]: ≥ 90%; pest or weed control at 5 ppm (bacterial blight in rice): ≥ 90%; pest or weed control at 10 ppm (bacterial blight in rice): ≥ 90%; pest or weed control at 5 ppm [13]: ≥ 90%; pest or weed control at 10 ppm [13]: ≥ 90%; pest or weed control at 5 ppm [14]: ≥ 90%; pest or weed control at 10 ppm [14]: ≥ 90% |
| COCCOC(=O)c1cn(C2CC2)c2cc(OC)c(F)cc2c1=O [Compound 281] | ≥ 90% | ≥ 90% | ≥ 90% | ≥ 90% | ≥ 90% | ≥ 90% | ≥ 90% | ≥ 90% | ≥ 90% | ≥ 90% | ≥ 90% | ≥ 90% | ≥ 90% | ≥ 90% | ≥ 90% | ≥ 90% | ≥ 90% | ≥ 90% | ≥ 90% | ≥ 90% | Rate of chlorophyll content increase (%) [10]: 16%; Rate of growth rate increase (%) [10]: 13%; Rate of leaf area increase (%) [10]: 13%; safety for plant growth (discoloration, necrosis, wilt, malformation) (cucumber seedlings): safe for plant growth; pest or weed control at 5 ppm [11]: ≥ 90%; pest or weed control at 10 ppm [11]: ≥ 90%; pest or weed control at 5 ppm [12]: ≥ 90%; pest or weed control at 10 ppm [12]: ≥ 90%; pest or weed control at 5 ppm (bacterial blight in rice): ≥ 90%; pest or weed control at 10 ppm (bacterial blight in rice): ≥ 90%; pest or weed control at 5 ppm [13]: ≥ 90%; pest or weed control at 10 ppm [13]: ≥ 90%; pest or weed control at 5 ppm [14]: ≥ 90%; pest or weed control at 10 ppm [14]: ≥ 90% |
| COCCOC(=O)c1cn(C2CC2)c2cc(OC(C)(C)C)c(F)cc2c1=O [Compound 287] | ≥ 90% | ≥ 90% | ≥ 90% | ≥ 90% | ≥ 90% | ≥ 90% | ≥ 90% | ≥ 90% | ≥ 90% | ≥ 90% | ≥ 90% | ≥ 90% | ≥ 90% | ≥ 90% | ≥ 90% | ≥ 90% | ≥ 90% | ≥ 90% | ≥ 90% | ≥ 90% | Rate of chlorophyll content increase (%) [10]: 13%; Rate of growth rate increase (%) [10]: 10%; Rate of leaf area increase (%) [10]: 10%; safety for plant growth (discoloration, necrosis, wilt, malformation) (cucumber seedlings): safe for plant growth; pest or weed control at 5 ppm [11]: ≥ 90%; pest or weed control at 10 ppm [11]: ≥ 90%; pest or weed control at 5 ppm [12]: ≥ 90%; pest or weed control at 10 ppm [12]: ≥ 90%; pest or weed control at 5 ppm (bacterial blight in rice): ≥ 90%; pest or weed control at 10 ppm (bacterial blight in rice): ≥ 90%; pest or weed control at 5 ppm [13]: ≥ 90%; pest or weed control at 10 ppm [13]: ≥ 90%; pest or weed control at 5 ppm [14]: ≥ 90%; pest or weed control at 10 ppm [14]: ≥ 90% |
| COCCOC(=O)c1cn(C2CC2)c2cc(OCC(F)(F)F)c(F)cc2c1=O [Compound 292, 2-methoxyethyl 1-cyclopropyl-6-fluoro-4-oxo-7-(2,2,2-trifluoroethoxy)-1,4-dihydroquinoline-3-carboxylate] | ≥ 90% | ≥ 90% | ≥ 90% | ≥ 90% | ≥ 90% | ≥ 90% | ≥ 90% | ≥ 90% | ≥ 90% | ≥ 90% | ≥ 90% | ≥ 90% | ≥ 90% | ≥ 90% | ≥ 90% | ≥ 90% | ≥ 90% | ≥ 90% | ≥ 90% | ≥ 90% | Rate of chlorophyll content increase (%) [10]: 16%; Rate of growth rate increase (%) [10]: 15%; Rate of leaf area increase (%) [10]: 15%; safety for plant growth (discoloration, necrosis, wilt, malformation) (cucumber seedlings): safe for plant growth; pest or weed control at 5 ppm [11]: ≥ 90%; pest or weed control at 10 ppm [11]: ≥ 90%; pest or weed control at 5 ppm [12]: ≥ 90%; pest or weed control at 10 ppm [12]: ≥ 90%; pest or weed control at 5 ppm (bacterial blight in rice): ≥ 90%; pest or weed control at 10 ppm (bacterial blight in rice): ≥ 90%; pest or weed control at 5 ppm [13]: ≥ 90%; pest or weed control at 10 ppm [13]: ≥ 90%; pest or weed control at 5 ppm [14]: ≥ 90%; pest or weed control at 10 ppm [14]: ≥ 90% |
